Read-outs that look alike come from different tables or passages of the source.
Target: T1, porcine pancreatic lipase (triacylglycerol acyl hydrolase; EC 3.1.1.3) (Sus scrofa, UniProt P00591)
T1 sequence (P00591 1-450): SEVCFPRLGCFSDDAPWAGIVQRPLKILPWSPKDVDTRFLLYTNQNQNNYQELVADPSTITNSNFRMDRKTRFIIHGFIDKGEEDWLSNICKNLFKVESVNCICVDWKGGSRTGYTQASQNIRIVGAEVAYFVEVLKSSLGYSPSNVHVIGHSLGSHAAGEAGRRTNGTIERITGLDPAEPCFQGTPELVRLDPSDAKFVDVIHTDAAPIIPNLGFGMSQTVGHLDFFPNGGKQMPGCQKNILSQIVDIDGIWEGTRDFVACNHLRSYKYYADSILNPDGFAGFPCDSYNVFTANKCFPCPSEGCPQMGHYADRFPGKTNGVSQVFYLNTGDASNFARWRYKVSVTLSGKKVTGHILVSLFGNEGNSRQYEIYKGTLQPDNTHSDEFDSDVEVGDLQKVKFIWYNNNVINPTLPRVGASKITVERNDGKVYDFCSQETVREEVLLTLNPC
Assay: In vitro pancreatic lipase inhibition, 4-nitrophenyl butyrate substrate
Assay type: biochemical
Settings: means ± SD (n = 3), PBS pH 7.2, 37 °C, OD 405 nm
Protocol: The inhibition of PL was evaluated using a previously reported method.
The inhibition studies of porcine pancreatic lipase (triacylglycerol acyl hydrolase; EC 3.1.1.3) were performed employing 4-nitrophenyl butyrate as a substrate. The compounds were dissolved in MeOH at concentrations from 0.22 mM to 2.7 mM. […] Then, the substrate solution was added (10 μL of 3.2 mM in H2O:DMF, 70:30), and the plate was incubated and shaken for 30 min at 37 °C. The optical density values (OD) were acquired at 405 nm with a Synergy H1 microplate reader (BioTek, Bad Friedrichshall, Germany). The experiments were performed in triplicate, and the %inhibition was determined by the following equation:(1) %inhibition=ODcontrol−ODsample/ODcontrol× 100% where ODcontrol refers to the enzyme–substrate mixture, while ODsample corresponds to the enzyme–substrate mixture in the presence of the inhibitor.
OriginPro 2023 software (OriginLab Corp., Northampton, MA, USA) was adopted for statistical analysis. The regression coefficients were determined based on the analysis of variance (one-way ANOVA, significance level 0.01). A p-value < 0.01 was set as the threshold for significance for Tukey’s test.

Structure (SMILES)	IC50	IC50 (read-out: IC50)
COc1cc([C@H]2c3cc(O)c(OC)cc3C[C@@H](CO)[C@@H]2CO)ccc1O [Isolariciresinol]	low micromolar range	12.3 ± 1.2 µM
Oc1ccc(/C=C/c2cc(O)cc3c2[C@@H](c2cc(O)cc(O)c2)[C@H](c2ccc(O)cc2)O3)cc1 [ε-Viniferin, Ɛ-Viniferin]	low micromolar range	13.2 ± 0.6 µM
C/C(=C\COc1c2ccoc2cc2oc(=O)ccc12)CCC(O)C(C)(C)O (centres unmarked) [Dihydroxybergamottin]		84.5 ± 1.5 µM

— PMC12472586, “Leveraging Natural Compounds for Pancreatic Lipase Inhibition via Virtual Screening” (Pharmaceuticals, 2025)
